Experimental data taken from article PMC11742723, “The clinical-stage drug BTZ-043 accumulates in murine tuberculosis lesions and efficiently acts against Mycobacterium tuberculosis” (Nature Communications, 2025).
Where “and” joins values, the source holds several entries; their conditions need not be identical. Equal entries are not always repeated. Where two headings read alike, the source gives them in different places.

Tests used:
Mtb H37Rv [1] = assay: BTZ-043 dose escalation study in Mtb-infected BALB/c mice (pulmonary CFU); assay type: in vivo, Mycobacterium tuberculosis
Caco-2 cell monolayers = assay: In vitro permeability assay in Caco-2 monolayers; conditions: direction AB, time 60 min
[2] = In vitro permeability assay in Caco-2 monolayers; conditions: human, Caco-2
[3] = for ng BTZ-043 / mg cryosection: individual cryosections; for BTZ-043 concentration in lung cryosections: Mtb-infected IL-13tg mice, 10 daily doses 250 mg/kg, one mouse each, n=5 cryosections, 250 mg/kg
[4] = LCM coupled LC-MS/MS of necrotic granulomas and non-necrotic regions; assay type: in vivo, IL-13tg mice; conditions: for concentration at 4 h: IL-13tg, mouse, oral
Experimental: Necrotic granulomas and non-necrotic regions were dissected from 2 to 3 γ−irradiated serial lung cryosections (thickness: 12 µm) using a PALM Microbeam (Zeiss, Oberkochen, Germany). Laser-dissected tissues were captured in an ascorbic acid solution (2.5 mg/mL) to prevent the degradation of BTZ-043 and stored at -80 °C. Samples were thawed on ice before drying in the SpeedVac. For reconstitution 80 µL of an 80% ACN/ 20% FA, containing 20 ng/mL reserpine and d4-BTZ-043, were added. The samples were vortexed for 1 min and kept in an ultrasonic bath for 3 min. Subsequently, the samples were centrifuged (10 min, 15,000 × g). The supernatant was transferred into a glass vial and 5 µL was injected into the LC. The LC settings and MS parameters were the same as described for the tissue mimetics (Supplementary Methods). As internal standard d4-BTZ-043 was utilized, with the m/z-transitions 436.0 → 86.0 (cone voltage of 30 V, collision energy of 30 eV, dwell time of 0.2 s) as quantifier. With the expected very low concentrations of the analyte in the LCM material, the deuterated standard was applied to better mimic matrix effects and recovery for this analysis. For calibration curve preparation lung homogenate from drug-naïve mice was added to 80% ACN/20% FA (1%), containing reserpine (as QC) and d4-BTZ-043 (20 ng/mL per sample) to the final solution containing about 0.44 µg tissue/mL, which equals the average weight of the obtained material of the LCM. After centrifugation (5 min, 15,000 × g) the supernatant was spiked with BTZ-043 to yield a calibration curve ranging from 0.00015–0.025 µg/mL.

Mtb H37Rv [5] = assay: BTZ-043 dose-fractionation study in Mtb-infected BALB/c mice (lung CFU); assay type: in vivo, Mycobacterium tuberculosis; conditions: for pulmonary CFU counts / mouse: 6 weeks of treatment, individual female mice
[6] = BALB/c, 8 weeks, 3 highest doses (250-1000 mg/kg/day)
[7] = LCM flakes from adjacent area (non necrotic), 4h post administration, listed as BTZ

C[C@H]1COC2(CCN(c3nc(=O)c4cc(C(F)(F)F)cc([N+](=O)[O-])c4s3)CC2)O1 [BTZ-043]
antimycobacterial activity compared to INH (25 mg/kg/day) (Mtb H37Rv [1]; BALB/c, 6 weeks, 50 mg/kg/day): reduced
antimycobacterial activity compared to INH (25 mg/kg/day) (Mtb H37Rv [1]; BALB/c, 6 weeks, 100 mg/kg/day): comparable
antimycobacterial activity compared to INH (25 mg/kg/day) (Mtb H37Rv [1]; BALB/c, 6 weeks, 250, 500 and 1000 mg/kg/day): significantly greater antimycobacterial activity than the first-line drug INH
efficacy compared to INH therapy (Mtb H37Rv [1]; [6]): significantly increased efficacy
pulmonary bacterial burden lower than the vehicle control group (Mtb H37Rv [1]; [6]): more than 2.4 log10 CFU
lowest dose with maximum effect (LME) (Mtb H37Rv [1]; mouse model of TB (BALB/c), microcrystalline BTZ-043): 250 mg/kg/day
Concentration (Caco-2 cell monolayers; BTZ-043 4 μg mL^-1, replicates 1-3): 124.355 ng/mL
Calculated Amount (Caco-2 cell monolayers; BTZ-043 (4 µg mL^-1), compartment baso): 124.355
Papp A→B at 120 min [2]: 9.44 to 11.3 ×10⁻⁶ cm/s
Papp at 120 min, 4 µg/mL [2]: 11.3 ×10⁻⁶ cm/s
efflux ratio at 120 min, 1 µg/mL [2]: 0.73
efflux ratio at 120 min, 4 µg/mL [2]: 1.14
ng BTZ-043 / mg cryosection ([3]; 2 h after administration, mouse KW116 B9#1 (male)): 1.02 ng / mg cryosection and 0.92 ng / mg cryosection and 0.62 ng / mg cryosection
ng BTZ-043 / mg cryosection ([3]; 8 h after administration, mouse KW116 B15#1 (female)): 0.27 ng / mg cryosection (2×) and 0.21 ng / mg cryosection and 0.36 ng / mg cryosection
pulmonary drug concentrations in lung cryosections ([3]; IL-13tg mice, until 8 h after administration): 270 to 1940 ng/g
BTZ-043 concentration in lung cryosections ([3]; 0.5 h after last administration): 1.32 ± 0.33 ng/mg cryosection
BTZ-043 concentration in lung cryosections ([3]; 2 h after last administration): 1.10 ± 0.25 ng/mg cryosection
BTZ-043 concentration in lung cryosections ([3]; 4 h after last administration): 0.79 ± 0.12 ng/mg cryosection and 1.94 ± 0.37 ng/mg cryosection
BTZ-043 concentration in lung cryosections ([3]; 8 h after last administration): 0.27 ± 0.05 ng/mg cryosection and 0.65 ± 0.06 ng/mg cryosection
pulmonary BTZ-043 concentrations relative to the MIC ([3]; all time points investigated (0.5-8 h), n=8 mice): substantially higher than the MIC at all time points investigated
BTZ-043 concentration in the whole section above the MIC ([3]; lung cryosections, 4 and 8 h): at least 100 x
concentration at 4 h ([4]; TB granulomas laser-dissected from lung cryosections, 250 mg/kg, 4 h after administration, assumed tissue density 1 g/mL, read-out: mean BTZ-043 concentration within TB granulomas): 570 ng/mL
concentration at 4 h ([4]; lung, laser-dissected necrotic granuloma, 250 mg/kg, LCM flakes from granulome area (granuloma), IL-13tg mouse lung cryosections, 4h post administration, read-out: ng/mg lung tissue, technical replicate 2): 495 ng/g
concentration at 4 h ([4]; lung, laser-dissected necrotic granuloma, 250 mg/kg, LCM flakes from granulome area (granuloma), mean of 2 technical replicates, 4h post administration, read-out: ng/mg lung tissue, Mean): 430 ng/g
concentration at 4 h ([4]; lung, whole cryosection, 250 mg/kg, whole cryosection from OT207 (QC, internal control), 4h post administration, read-out: ng/mg lung tissue, technical replicate 1): 779 ng/g
concentration at 4 h ([4]; lung, whole cryosection, 250 mg/kg, whole cryosection from OT207 (QC, internal control), 4h post administration, read-out: ng/mg lung tissue, technical replicate 2): 846 ng/g
concentration at 4 h ([4]; lung, whole cryosection, 250 mg/kg, whole cryosection from OT207 (QC, internal control), mean of 2 technical replicates, 4h post administration, read-out: ng/mg lung tissue, Mean): 810 ng/g
concentration at 4 h ([4]; necrotic granulomas laser-dissected from lung cryosections, 250 mg/kg/day, IL-13tg mouse, 250 mg/kg/day 10 days, 4 h after application, read-out: mean BTZ-043 concentration in necrotic granulomas): 570 ng/g
concentration at 4 h ([4]; non-necrotic regions laser-dissected from lung cryosections, 250 mg/kg/day, IL-13tg mouse, 250 mg/kg/day 10 days, 4 h after application, read-out: mean BTZ-043 concentration in non-necrotic regions): 340 ng/g
concentration at 4 h ([4]; 250 mg/kg, LCM flakes from adjacent area (non necrotic), 4h post administration, read-out: ng/mg lung tissue, technical replicate 1): 388 ng/g
concentration at 4 h ([4]; 250 mg/kg, LCM flakes from adjacent area (non necrotic), 4h post administration, read-out: ng/mg lung tissue, technical replicate 2): 371 ng/g
concentration at 4 h ([4]; 250 mg/kg, LCM flakes from adjacent area (non necrotic), mean of 2 technical replicates, 4h post administration, read-out: ng/mg lung tissue, Mean): 380 ng/g
ng/mg lung tissue, technical replicate 1 [4, 7]: 0.303 ng/mg lung tissue and 0.478 ng/mg lung tissue
ng/mg lung tissue, technical replicate 2 [4, 7]: 0.299 ng/mg lung tissue and 0.205 ng/mg lung tissue
ng/mg lung tissue, Mean ([4]; LCM flakes from adjacent area (non necrotic), mean of 2 technical replicates, 4h post administration, listed as BTZ): 0.30 ng/mg lung tissue and 0.34 ng/mg lung tissue
ng/mg lung tissue, Mean ([4]; LCM flakes from granulome area (granuloma), mean of 2 technical replicates, 4h post administration, listed as BTZ): 0.66 ng/mg lung tissue and 0.65 ng/mg lung tissue
pulmonary CFU counts / mouse (Mtb H37Rv [5]; 2.5 mg/kg BTZ-043 BID): 20001 CFU counts / mouse and 18001 CFU counts / mouse and 34001 CFU counts / mouse and 55001 CFU counts / mouse
pulmonary CFU counts / mouse (Mtb H37Rv [5]; 2.5 mg/kg BTZ-043 QD): 50001 CFU counts / mouse and 110001 CFU counts / mouse and 82501 CFU counts / mouse
pulmonary CFU counts / mouse (Mtb H37Rv [5]; 5 mg/kg BTZ-043 QD): 160001 CFU counts / mouse and 92501 CFU counts / mouse
CFU reduction compared to the untreated control (Mtb H37Rv [5]; BALB/c lungs, 250 mg/kg QD microcrystalline BTZ-043, 6 weeks): 3.7 log10 CFU
effect of fractionation of the dose into two administrations (BID vs QD, identical total dose) (Mtb H37Rv [5]; amorphous BTZ-043, 5 to 50 mg/kg/day, 6 weeks): modest, but consistent, trend towards increased mycobactericidal activity
